Measurements as given in publication PMC10392058 (FEBS Open Bio, 2023).
Blank lines part the entries; values can stand above or below the compound they belong to.

Key:
[1] = MDCKII bidirectional permeability, mock transfected cells; type: in vitro ADME; conditions: dog, MDCK
BCRP = target: T1, BCRP (Homo sapiens, UniProt Q9UNQ0); assay: MDCKII bidirectional permeability, BCRP expressing cells; conditions: dog
T1 sequence (Q9UNQ0 1-655): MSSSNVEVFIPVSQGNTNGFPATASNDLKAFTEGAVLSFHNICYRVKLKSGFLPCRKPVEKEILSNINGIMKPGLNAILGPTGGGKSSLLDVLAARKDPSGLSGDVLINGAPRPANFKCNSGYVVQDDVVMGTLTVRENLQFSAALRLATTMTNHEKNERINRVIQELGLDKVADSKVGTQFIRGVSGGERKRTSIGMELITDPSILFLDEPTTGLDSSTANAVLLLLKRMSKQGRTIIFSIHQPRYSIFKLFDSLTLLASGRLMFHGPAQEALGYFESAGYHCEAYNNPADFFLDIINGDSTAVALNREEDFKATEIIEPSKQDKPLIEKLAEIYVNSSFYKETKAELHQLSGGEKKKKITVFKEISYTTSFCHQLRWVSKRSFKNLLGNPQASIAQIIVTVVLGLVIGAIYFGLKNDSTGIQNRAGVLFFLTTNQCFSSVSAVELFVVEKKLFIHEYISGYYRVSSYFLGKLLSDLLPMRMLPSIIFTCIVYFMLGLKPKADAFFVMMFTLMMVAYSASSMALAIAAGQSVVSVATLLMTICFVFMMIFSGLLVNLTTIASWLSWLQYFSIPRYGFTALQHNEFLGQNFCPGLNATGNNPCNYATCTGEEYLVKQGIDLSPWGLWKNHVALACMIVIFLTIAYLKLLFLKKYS

[2] = system: HXA3/MRP2‐driven neutrophil epithelial transmigration; assay: HXA3/MRP2‐driven neutrophil transmigration assay (S. typhimurium‐stimulated T84 monolayer, MPO readout); type: cell-based, human; conditions: 100 μM probenecid (positive control); P = 0.0008
Description: As described under Materials and Methods, in the neutrophil transmigration assay, a polarized human intestinal cell line monolayer was grown on a transwell insert to mimic the intestinal epithelial barrier. The cells were then apically stimulated by the addition of pathogenic Salmonella typhimurium, eliciting HXA3 efflux via MRP2 into the apical side of the chamber. Fresh, unstimulated human neutrophils were added to the basolateral side of the monolayer, where they detected the HXA3 gradient and migrated through the epithelial monolayer to the apical side. They were then quantified by assay of myeloperoxidase (MPO), a neutrophil biomarker.
Following stimulation via pathogenic S. typhimurium to elicit HXA3 efflux, migration of fresh human neutrophils from the basolateral side of the polarized monolayer (in response to the HXA3 gradient) to the apical side was quantified by MPO activity assay. […]
In the neutrophil transmigration assay (a modified Boyden chamber assay), a polarized T84 human intestinal cell line monolayer was grown on a Transwell insert to mimic the intestinal epithelial barrier. […] Fresh human neutrophils, added to the basolateral side of the monolayer, detected the HXA3 gradient and migrated through the epithelial monolayer to the apical side, where they were quantified by assay of MPO activity, a neutrophil biomarker [47].

HXA3 release = system: HXA3 release; parameters: method as in PMID 19017997; conditions: 100 μM; cited from earlier work
MDCKII‐mock‐LV cells = assay: MDCKII bidirectional permeability, mock transfected cells; type: in vitro ADME
MDCKII‐BCRP‐LV cells = target: T2, MDCKII‐BCRP‐LV cells (Homo sapiens, UniProt Q9UNQ0); assay: MDCKII bidirectional permeability, BCRP expressing cells
T2 sequence (Q9UNQ0 1-655): T1 sequence (Q9UNQ0 1-655)

Papp A→B at 1 μM [1]: 14.7 ± 13.3 ×10⁻⁶ cm/s
Papp A→B at 1 μM (BCRP): 3.02 ± 0.84 ×10⁻⁶ cm/s
Papp B→A at 1 μM (BCRP): 53.1 ± 8.15 ×10⁻⁶ cm/s
Compound: COc1cc2nc(N3CCN(C(=O)c4ccco4)CC3)nc(N)c2cc1OC [Prazosin]

Compound: CCCN(CCC)S(=O)(=O)c1ccc(C(=O)O)cc1 [probenecid]
neutrophil migration inhibition [2]: extremely significant
inhibition of HXA3 release (HXA3 release): effectively inhibits HXA3 release

Compound: Lucifer yellow [LY]
Papp A‐B (MDCKII‐mock‐LV cells; LY 40 μg·mL^−1): 0.20 ± 0.03 × 10^−6 cm·s^−1
Papp A‐B (MDCKII‐mock‐LV cells; LY 40 μg·mL^−1 + ADS051 14 mg·mL^−1 (TA applied apically)): 0.32 ± 0.09 × 10^−6 cm·s^−1
Papp A‐B (MDCKII‐mock‐LV cells; LY 40 μg·mL^−1 + ADS051 14 mg·mL^−1 (TA applied basolaterally)): 0.46 ± 0.09 × 10^−6 cm·s^−1
Papp A‐B (MDCKII‐BCRP‐LV cells; LY 40 μg mL^−1): 0.06 ± 0.01 × 10^−6 cm·s^−1
Papp A‐B (MDCKII‐BCRP‐LV cells; LY 40 μg mL^−1 + ADS051 14 mg mL^−1 (TA applied apically)): 0.21 ± 0.02 × 10^−6 cm·s^−1
Papp A‐B (MDCKII‐BCRP‐LV cells; LY 40 μg mL^−1 + ADS051 14 mg mL^−1 (TA applied basolaterally)): 0.19 ± 0.01 × 10^−6 cm·s^−1
